The test system of the assay is MV-4-11 cells. Nature of the assay: Gene expression microarray analysis (Affymetrix PrimeView) and GSEA. It is filed as cell-based, human. Further details: RFU PODN (11730768_x_at) / Fold change /veh PODN (11730768_x_at) / RFU LINC00158 (11744669_a_at) / Fold change /veh LINC00158 (11744669_a_at) / RFU DUSP10 (11751237_a_at) / Fold change /veh DUSP10 (11751237_a_at) / RFU ID3 (11757404_x_at) / Fold change /veh ID3 (11757404_x_at) / RFU PLEKHG5 (11737974_s_at) / Fold change /veh PLEKHG5 (11737974_s_at) / RFU LRRC4B (11730491_at) / Fold change /veh LRRC4B (11730491_at) / RFU GIMAP4 (11747438_a_at) / Fold change /veh GIMAP4 (11747438_a_at) / RFU KRT8 (11758183_x_at) / Fold change /veh KRT8 (11758183_x_at) / RFU CNN1 (11734310_a_at) / Fold change /veh CNN1 (11734310_a_at) / RFU VPS37D (11726825_at) / Fold change /veh VPS37D (11726825_at) / RFU C10orf10 (11716522_x_at) / Fold change /veh C10orf10 (11716522_x_at) / RFU KIR2DL2 /// KIR2DL4 /// KIR2DL5A /// KIR2DL5B /// KIR2DS1 /// KIR2DS2 /// KIR2DS3 /// KIR2DS4 /// KIR3DL3 /// KIR3DL3 /// KIR3DS1 (11738374_at) / Fold change /veh KIR2DL2 /// KIR2DL4 /// KIR2DL5A /// KIR2DL5B /// KIR2DS1 /// KIR2DS2 /// KIR2DS3 /// KIR2DS4 /// KIR3DL3 /// KIR3DL3 /// KIR3DS1 (11738374_at) / RFU C1QL1 (11718748_at) / Fold change /veh C1QL1 (11718748_at) / RFU TMPRSS4 (11747572_a_at) / Fold change /veh TMPRSS4 (11747572_a_at) / RFU HAMP (11756126_x_at) / Fold change /veh HAMP (11756126_x_at) / RFU RNFT2 (11725882_a_at) / Fold change /veh RNFT2 (11725882_a_at) / RFU NR4A2 (11747474_a_at) / Fold change /veh NR4A2 (11747474_a_at) / RFU ABCC12 (11746883_a_at) / Fold change /veh ABCC12 (11746883_a_at) / RFU TMEM136 (11760407_x_at) / Fold change /veh TMEM136 (11760407_x_at) / RFU CLDN22 /// WWC2 (11732394_at) / Fold change /veh CLDN22 /// WWC2 (11732394_at) / RFU HLA-DPB1 (11760878_x_at) / Fold change /veh HLA-DPB1 (11760878_x_at) / RFU SPINT1 (11716480_a_at) / Fold change /veh SPINT1 (11716480_a_at) / RFU GAP43 (11754022_s_at) / Fold change /veh GAP43 (11754022_s_at) / RFU A4GNT (11735810_at) / Fold change /veh A4GNT (11735810_at) / RFU PRB3 (11715151_x_at) / Fold change /veh PRB3 (11715151_x_at) / RFU TUBB4B (11761932_at) / Fold change /veh TUBB4B (11761932_at) / RFU CAPN14 (11732068_a_at) / Fold change /veh CAPN14 (11732068_a_at) / RFU TMCC2 (11721928_a_at) / Fold change /veh TMCC2 (11721928_a_at) / RFU IRGQ (11745062_a_at) / Fold change /veh IRGQ (11745062_a_at) / RFU FAM174B (11720279_a_at) / Fold change /veh FAM174B (11720279_a_at) / RFU TMPRSS4 (11748680_a_at) / Fold change /veh TMPRSS4 (11748680_a_at) / RFU FAM212B (11763350_a_at) / Fold change /veh FAM212B (11763350_a_at) / RFU PLEKHG5 (11743358_a_at) / Fold change /veh PLEKHG5 (11743358_a_at) / RFU ZSCAN30 (11745921_a_at) / Fold change /veh ZSCAN30 (11745921_a_at) / RFU CMKLR1 (11741424_a_at) / Fold change /veh CMKLR1 (11741424_a_at) / RFU LOC101060620 /// MAPK8IP1 (11723275_at) / Fold change /veh LOC101060620 /// MAPK8IP1 (11723275_at) / RFU SPTSSB (11747773_x_at) / Fold change /veh SPTSSB (11747773_x_at) / RFU PRSS12 (11739890_at) / Fold change /veh PRSS12 (11739890_at) / RFU BIN1 (11741810_x_at) / Fold change /veh BIN1 (11741810_x_at) / RFU WNT11 (11732464_a_at) / Fold change /veh WNT11 (11732464_a_at) / RFU C10orf10 (11716521_a_at) / Fold change /veh C10orf10 (11716521_a_at) / RFU C5orf56 (11738089_at) / Fold change /veh C5orf56 (11738089_at) / RFU CYB561 (11721691_x_at) / Fold change /veh CYB561 (11721691_x_at) / RFU ANKRD19P (11752326_a_at) / Fold change /veh ANKRD19P (11752326_a_at) / RFU OR2T12 /// OR2T33 /// OR2T8 (11738714_s_at) / Fold change /veh OR2T12 /// OR2T33 /// OR2T8 (11738714_s_at) / RFU VCAN (11748164_a_at) / Fold change /veh VCAN (11748164_a_at) / RFU JSRP1 (11732532_at) / Fold change /veh JSRP1 (11732532_at) / RFU KRTAP10-11 (11738290_x_at) / Fold change /veh KRTAP10-11 (11738290_x_at) / RFU MYO3A (11730013_a_at) / Fold change /veh MYO3A (11730013_a_at) / RFU EBF3 (11725865_a_at) / Fold change /veh EBF3 (11725865_a_at) / RFU CAMK2N1 (11719241_x_at) / Fold change /veh CAMK2N1 (11719241_x_at) / RFU C5orf56 (11738088_a_at) / Fold change /veh C5orf56 (11738088_a_at) / RFU OLFML3 (11715873_a_at) / Fold change /veh OLFML3 (11715873_a_at) / RFU LOC100653217 /// NTM (11731650_a_at) / Fold change /veh LOC100653217 /// NTM (11731650_a_at) / RFU MAPK11 (11762145_a_at) / Fold change /veh MAPK11 (11762145_a_at) / RFU FIZ1 (11724087_x_at) / Fold change /veh FIZ1 (11724087_x_at) / RFU OASL (11726364_x_at) / Fold change /veh OASL (11726364_x_at) / RFU SOX15 (11748057_x_at) / Fold change /veh SOX15 (11748057_x_at) / RFU CD79A (11719716_a_at) / Fold change /veh CD79A (11719716_a_at) / RFU HIST1H1D (11736915_at) / Fold change /veh HIST1H1D (11736915_at) / RFU CASKIN2 (11723855_a_at) / Fold change /veh CASKIN2 (11723855_a_at) / RFU LOC730098 (11760151_x_at) / Fold change /veh LOC730098 (11760151_x_at) / RFU OR4N2 (11742367_at) / Fold change /veh OR4N2 (11742367_at) / RFU PRRT2 (11749266_a_at) / Fold change /veh PRRT2 (11749266_a_at) / RFU SNX32 (11753110_a_at) / Fold change /veh SNX32 (11753110_a_at) / RFU CDHR5 (11726645_a_at) / Fold change /veh CDHR5 (11726645_a_at) / RFU RCAN1 (11760418_a_at) / Fold change /veh RCAN1 (11760418_a_at) / RFU FAM167A (11723789_a_at) / Fold change /veh FAM167A (11723789_a_at) / RFU FAM26E (11764081_at) / Fold change /veh FAM26E (11764081_at) / RFU ISYNA1 (11749810_s_at) / Fold change /veh ISYNA1 (11749810_s_at) / RFU ACY1 (11761880_at) / Fold change /veh ACY1 (11761880_at) / RFU 11764098_at / Fold change /veh 11764098_at / RFU SAMD14 (11745864_x_at) / Fold change /veh SAMD14 (11745864_x_at) / RFU NPB (11741838_a_at) / Fold change /veh NPB (11741838_a_at) / RFU TMPRSS6 (11731388_a_at) / Fold change /veh TMPRSS6 (11731388_a_at) / RFU KRTAP10-2 (11738614_at) / Fold change /veh KRTAP10-2 (11738614_at) / RFU ARHGAP8 /// PRR5-ARHGAP8 (11727945_x_at) / Fold change /veh ARHGAP8 /// PRR5-ARHGAP8 (11727945_x_at) / RFU KRTAP5-7 /// NADSYN1 (11734609_at) / Fold change /veh KRTAP5-7 /// NADSYN1 (11734609_at) / RFU RASL12 (11751679_a_at) / Fold change /veh RASL12 (11751679_a_at) / RFU CDKN2B (11736163_a_at) / Fold change /veh CDKN2B (11736163_a_at) / RFU PRF1 (11729649_at) / Fold change /veh PRF1 (11729649_at) / RFU, ZNF638 /// ZNF638-IT1 / Fold change vs veh, ZNF638 /// ZNF638-IT1 / RFU, PANK3 / Fold change vs veh, PANK3 / RFU, SH3YL1 / Fold change vs veh, SH3YL1 / RFU, ZEB2 / Fold change vs veh, ZEB2 / RFU, NRIP1 / Fold change vs veh, NRIP1 / RFU, PTTG1IP / Fold change vs veh, PTTG1IP / RFU, CAPN2 / Fold change vs veh, CAPN2 / RFU, MED14 / Fold change vs veh, MED14 / RFU, SNORA58 / Fold change vs veh, SNORA58 / RFU, C1orf63 / Fold change vs veh, C1orf63 / RFU, LRRFIP1 / Fold change vs veh, LRRFIP1 / RFU, NDUFAF7 / Fold change vs veh, NDUFAF7 / RFU, SLC12A2 / Fold change vs veh, SLC12A2 / RFU, IBTK / Fold change vs veh, IBTK / RFU, ESF1 / Fold change vs veh, ESF1 / Fold change vs veh, TMEM50B / RFU, TAOK1 / Fold change vs veh, TAOK1 / RFU, ACBD3 / Fold change vs veh, ACBD3 / RFU, TMA16 / Fold change vs veh, TMA16 / RFU, RWDD3 / Fold change vs veh, RWDD3 / RFU, BCAT1 / Fold change vs veh, BCAT1 / RFU, EDEM3 / Fold change vs veh, EDEM3 / RFU, TMEM33 / Fold change vs veh, TMEM33 / RFU, WDR75 / Fold change vs veh, WDR75 / RFU, AHCTF1 / Fold change vs veh, AHCTF1 / RFU, TFRC / Fold change vs veh, TFRC / RFU, ZDHHC17 / Fold change vs veh, ZDHHC17 / RFU, NOM1 / Fold change vs veh, NOM1 / RFU, ARL8B / Fold change vs veh, ARL8B / RFU, ZBTB11 / Fold change vs veh, ZBTB11 / RFU, TAMM41 / Fold change vs veh, TAMM41 / RFU, KIAA1704 /// LOC100996395 / Fold change vs veh, KIAA1704 /// LOC100996395 / RFU, ING1 / Fold change vs veh, ING1 / RFU, TRMT61B / Fold change vs veh, TRMT61B / RFU, FUBP3 / Fold change vs veh, FUBP3 / RFU, TP53 / Fold change vs veh, TP53 / RFU, TNKS2 / Fold change vs veh, TNKS2 / RFU, ZFP14 / Fold change vs veh, ZFP14 / RFU, ACTR2 / Fold change vs veh, ACTR2 / RFU, PPP3R1 / Fold change vs veh, PPP3R1 / RFU, PIK3R1 / Fold change vs veh, PIK3R1 / RFU, HNRNPA1 / Fold change vs veh, HNRNPA1 / RFU, RNF170 / Fold change vs veh, RNF170 / RFU, ZNF28 / Fold change vs veh, ZNF28 / RFU, RNGTT / Fold change vs veh, RNGTT / RFU, OGT / Fold change vs veh, OGT / RFU, BRD1 / Fold change vs veh, BRD1 / RFU, MARS / Fold change vs veh, MARS / RFU, ZNF655 / Fold change vs veh, ZNF655 / RFU, FAHD1 / Fold change vs veh, FAHD1 / RFU, BDP1 / Fold change vs veh, BDP1 / RFU, LRRCC1 / Fold change vs veh, LRRCC1 / RFU, ARID1A / Fold change vs veh, ARID1A / RFU, ZNF146 / Fold change vs veh, ZNF146 / RFU, ZNF330 / Fold change vs veh, ZNF330 / RFU, GPN3 / Fold change vs veh, GPN3 / RFU, C9orf123 / Fold change vs veh, C9orf123 / RFU, N4BP2L2 / Fold change vs veh, N4BP2L2 / RFU, ARFIP1 / Fold change vs veh, ARFIP1 / RFU, FAM179B / Fold change vs veh, FAM179B / RFU, BCL10 / Fold change vs veh, BCL10 / RFU, UHRF1BP1L / Fold change vs veh, UHRF1BP1L / RFU, BET1 / Fold change vs veh, BET1 / RFU, CNOT2 / Fold change vs veh, CNOT2 / RFU, ZNF268 / Fold change vs veh, ZNF268 / Fold change vs veh, ZNF507 / RFU, DGCR2 / Fold change vs veh, DGCR2 / RFU, WDSUB1 / Fold change vs veh, WDSUB1 / Fold change vs veh, HSP90B1 /// MIR3652 / RFU, ADSS / Fold change vs veh, ADSS / RFU, GK / Fold change vs veh, GK / RFU, ZNF148 / Fold change vs veh, ZNF148 / RFU, TAF9 / Fold change vs veh, TAF9 / RFU, SLC1A5 / Fold change vs veh, SLC1A5 / RFU, SLMO2 / Fold change vs veh, SLMO2 / RFU, ABCC4 / Fold change vs veh, ABCC4 / RFU, LOC101060439 /// RAP1B / Fold change vs veh, LOC101060439 /// RAP1B / RFU, RFX7 / Fold change vs veh, RFX7 / RFU, GTPBP10 / Fold change vs veh, GTPBP10 / RFU, CNEP1R1 / Fold change vs veh, CNEP1R1 / RFU, BIVM-ERCC5 /// ERCC5 / Fold change vs veh, BIVM-ERCC5 /// ERCC5 / RFU, ILF3 / Fold change vs veh, ILF3 / RFU 11762660_at / Fold change /veh 11762660_at / RFU VCAN (11757783_s_at) / Fold change /veh VCAN (11757783_s_at) / RFU DDX43 (11728927_at) / Fold change /veh DDX43 (11728927_at) / RFU KRT8 (11758188_x_at) / Fold change /veh KRT8 (11758188_x_at) / RFU NKD1 (11759106_at) / Fold change /veh NKD1 (11759106_at) / RFU SRD5A1 (11742802_a_at) / Fold change /veh SRD5A1 (11742802_a_at) / RFU TPSAB1 /// TPSB2 (11721975_s_at) / Fold change /veh TPSAB1 /// TPSB2 (11721975_s_at) / RFU GSTM3 (11746129_a_at) / Fold change /veh GSTM3 (11746129_a_at) / RFU IL23R (11737362_x_at) / Fold change /veh IL23R (11737362_x_at) / RFU TMEM51 (11727254_a_at) / Fold change /veh TMEM51 (11727254_a_at) / RFU PIWIL2 (11732686_x_at) / Fold change /veh PIWIL2 (11732686_x_at) / RFU ORM1 (11744905_x_at) / Fold change /veh ORM1 (11744905_x_at) / RFU CCDC152 (11743942_at) / Fold change /veh CCDC152 (11743942_at) / RFU ECM1 (11717891_a_at) / Fold change /veh ECM1 (11717891_a_at) / RFU IL23R (11748794_a_at) / Fold change /veh IL23R (11748794_a_at) / RFU TNFAIP8L3 (11732012_x_at) / Fold change /veh TNFAIP8L3 (11732012_x_at) / RFU MBOAT4 (11741988_at) / Fold change /veh MBOAT4 (11741988_at) / RFU 11764193_at / Fold change /veh 11764193_at / RFU TMEM53 (11763286_at) / Fold change /veh TMEM53 (11763286_at) / RFU MAGEB2 (11727129_at) / Fold change /veh MAGEB2 (11727129_at) / RFU TMEM200A (11744735_a_at) / Fold change /veh TMEM200A (11744735_a_at) / RFU CCDC152 (11751479_a_at) / Fold change /veh CCDC152 (11751479_a_at) / RFU FAM211A (11726209_a_at) / Fold change /veh FAM211A (11726209_a_at) / RFU RGS16 (11746705_a_at) / Fold change /veh RGS16 (11746705_a_at) / RFU VCAN (11755009_s_at) / Fold change /veh VCAN (11755009_s_at) / RFU RHOB (11743442_s_at) / Fold change /veh RHOB (11743442_s_at) / RFU RGS16 (11720943_a_at) / Fold change /veh RGS16 (11720943_a_at) / RFU RGS16 (11720944_at) / Fold change /veh RGS16 (11720944_at) / RFU, VPS4B / Fold change vs veh, VPS4B / RFU, CREB1 / Fold change vs veh, CREB1 / RFU, DNAJC13 / Fold change vs veh, DNAJC13 / RFU, GNAQ / Fold change vs veh, GNAQ / RFU, CDK5R1 / Fold change vs veh, CDK5R1 / RFU, ZRANB3 / Fold change vs veh, ZRANB3 / RFU, CUL4A / Fold change vs veh, CUL4A / RFU, CCNY / Fold change vs veh, CCNY / RFU, UFL1 / Fold change vs veh, UFL1 / RFU, COG3 / Fold change vs veh, COG3 / RFU, DIAPH2 / Fold change vs veh, DIAPH2 / RFU, SKA2 / Fold change vs veh, SKA2 / RFU, AFF3 / Fold change vs veh, AFF3 / RFU, LMF1 / Fold change vs veh, LMF1 / RFU, IPO11 / Fold change vs veh, IPO11 / RFU, DFFB / Fold change vs veh, DFFB / RFU, FOXP1 / Fold change vs veh, FOXP1 / RFU, CARD8 / Fold change vs veh, CARD8 / RFU, STRN3 / Fold change vs veh, STRN3 / RFU, ADK / Fold change vs veh, ADK / RFU, RASSF2 / Fold change vs veh, RASSF2 / RFU, WIPF1 / Fold change vs veh, WIPF1 / RFU, LARP1B / Fold change vs veh, LARP1B / RFU, RASA1 / Fold change vs veh, RASA1 / RFU, RB1 / Fold change vs veh, RB1 / RFU, PPFIA1 / Fold change vs veh, PPFIA1 / RFU, MAT2A / Fold change vs veh, MAT2A / RFU, CCT5 / Fold change vs veh, CCT5 / RFU, WDR92 / Fold change vs veh, WDR92 / RFU, CUX1 / Fold change vs veh, CUX1 / RFU, TTC7A / Fold change vs veh, TTC7A / RFU, TMEM135 / Fold change vs veh, TMEM135 / RFU, DEPTOR / Fold change vs veh, DEPTOR / RFU, CPM / Fold change vs veh, CPM / RFU, DNAJB6 / Fold change vs veh, DNAJB6 / RFU, CACNA2D3 / Fold change vs veh, CACNA2D3 / RFU, DTX4 / Fold change vs veh, DTX4 / RFU, TFCP2 / Fold change vs veh, TFCP2 / RFU, GMCL1 /// GMCL1P1 / Fold change vs veh, GMCL1 /// GMCL1P1 / RFU, AEBP2 / Fold change vs veh, AEBP2 / RFU, SNHG1 /// SNORD22 /// SNORD25 /// SNORD26 /// SNORD27 /// SNORD28 /// SNORD29 /// SNORD31 / Fold change vs veh, SNHG1 /// SNORD22 /// SNORD25 /// SNORD26 /// SNORD27 /// SNORD28 /// SNORD29 /// SNORD31 / Fold change (Aza/veh), C12orf56 (ProbeSet 11735607_a_at) / Fold change (ACY-1035/veh), C12orf56 (ProbeSet 11735607_a_at) / Fold change (Aza/veh), FGFR1OP (ProbeSet 11751329_s_at) / Fold change (ACY-1035/veh), FGFR1OP (ProbeSet 11751329_s_at) / Fold change (Aza/veh), VPS36 (ProbeSet 11739960_a_at) / Fold change (ACY-1035/veh), VPS36 (ProbeSet 11739960_a_at) / RFU SYPL1 (11715823_x_at) / Fold change /veh SYPL1 (11715823_x_at) / RFU IGFBP7 (11715501_s_at) / Fold change /veh IGFBP7 (11715501_s_at) / RFU REEP3 (11722064_at) / Fold change /veh REEP3 (11722064_at) / RFU IGLL1 (11728026_x_at) / Fold change /veh IGLL1 (11728026_x_at): dose or concentration left out as unconfirmed. The note with it: MV-4-11 cells, 48 hours.

With `Nc1ncn([C@@H]2O[C@H](CO)[C@@H](O)[C@H]2O)c(=O)n1` [azacitidine], the “Fold change /veh ARHGAP8 /// PRR5-ARHGAP8 (11727945_x_at)” value is 0.99.

(Values after PMC5218480 (PLoS ONE, 2017).)
